Common to all, as to type: biochemical
One assay addresses IRK (Homo sapiens, UniProt P06213). Description: Kinase specificity assay (33P phosphoryl transfer, LCCA or AlphaScreen). Conditions: ATP close to KM; read-out: IRK inhibition, IC50. On the procedure:
(§1) Kinase activity and compound inhibition are investigated using one or more of the three assay formats described below. The ATP concentrations for each assay are selected to be close to the Michaelis-Menten constant (KM) for each individual kinase. Dose-response experiments are performed at 10 different inhibitor concentrations in a 384-well plate format. The data are fitted to the following four-parameter equation: Y=Min+(Max−Min)/(1+(X/IC50)^H) where Y is the observed signal, X is the inhibitor concentration, Min is the background signal in the absence of enzyme (0% enzyme activity), Max is the signal in the absence of inhibitor (100% enzyme activity), IC50 is the inhibitor concentration at 50% enzyme inhibition and H represents the empirical Hill's slope to measure the cooperativity. Typically H is close to unity. ^33P Phosphoryl Transfer Assay:
(§2) Greiner 384-well white, clear bottom, high binding plates are coated with 2 μg/well of protein or peptide substrate in a 50 μL volume overnight at ambient temperature. The coating buffer typically contains 40 μg/mL substrate, 22.5 mM Na2CO3, 27.5 mM NaHCO3, 150 mM NaCl and 3 mM NaN3. The coating solution is aspirated and the plates are washed once with 50 μL of assay buffer and padded dry. Subsequently compounds and enzymes are mixed with γ^33P-ATP (3.3 μCi/nmol) in a total volume of 20 uL in suitable assay buffers. The mixture is incubated at ambient temperature for 1.5-2.5 hrs and terminated by aspiration using a Molecular Devices EMBLA 96-head plate washer. The plates are subsequently washed 6-12 times with PBST or TBS buffer. Scintillation fluid (50 μl/well) is then added, the plates are sealed and activity assessed by liquid scintillation spectrometry using a Perkin Elmer MicroBeta TriLux.
(§3) In the LCCA assays, kinase activity is measured as the percent ATP consumed following the kinase reaction using luciferase-luciferin-coupled chemiluminescence. Greiner 384-well white, clear bottom, medium binding plates are used for LCCA. Briefly, the kinase reaction is initiated by mixing compounds, ATP and kinase in a 20 uL volume. The mixture is incubated at ambient temperature for 2-4 hrs. At the end of the kinase reaction, a 20 uL luciferase-luciferin mix is added and the chemiluminescent signal is read using a Wallac Victor^2 reader. The luciferase-luciferin mix consists of 50 mM HEPES, pH 7.8, 8.5 ug/mL oxalic acid (pH 7.8), 5 (or 50) mM DTT, 0.4% Triton X-100, 0.25 mg/mL coenzyme A, 63 uM AMP, 28 ug/mL luciferin and 40,000 units of light/mL luciferase. For the LCCA assays, total ATP consumption has been standardized to 25-45% and the IC50 values correlates well with those determined by radiometric assays.
(§4) AlphaScreen technology is a proximity assay which utilizes the increase in fluorescent signal when donor and acceptor beads are close in proximity. Biotinylated poly(Glu,Tyr) 4:1 is used as the kinase substrate, in conjunction with streptavidin-coated donor beads and anti-phosphortyrosine antibody PY100-coated acceptor beads. Upon phosphorylation, the peptide substrate can bind to both donor and acceptor beads giving rise to an increase in fluorescence. Compounds, ATP, biotinylated poly(Glu, Tyr) and kinases are mixed in a volume of 20 uL for 1 hr at ambient temperature using Greiner 384-well white clear bottom medium binding plates. Following incubation a 10 uL solution containing […] AlphaScreen beads, 75 mM Hepes, pH 7.4, 300 mM NaCl, 120 mM EDTA, 0.3% BSA and 0.03% Tween-20 is added to each well. After 2-16 hr incubation of the beads, plates are read in a Perkin Elmer AlphaQuest reader. The IC50 values correlates well with those of radiometric assays.
On the technique in general: In Alpha technology, singlet oxygen from a donor bead excites a nearby acceptor bead.

The target of the next assay is Flt4 (Homo sapiens, UniProt P35916). The description is as above. Conditions: ATP close to KM; read-out: Flt4 inhibition, IC50. The method, then: as §1, §2, §3, §4
The target in the next assay is PLK (Homo sapiens, UniProt P53350). The description is as above. Conditions: ATP close to KM; read-out: PLK inhibition, IC50. On the procedure:
as §1, §2, §3, §4

For a further assay, the target named is EMK (Homo sapiens, UniProt Q7KZI7). The description is as above. The settings on record: ATP close to KM; read-out: EMK inhibition, IC50. The method, then: as §1, §2, §3, §4
The target of another assay is FGFR1 (Homo sapiens, UniProt P11362). The description is as above. The settings on record: ATP close to KM; read-out: FGFR1 inhibition, IC50. The method, then:
as §1, §2, §3, §4

The target of a further assay is Flt1 (Homo sapiens, UniProt P17948). The assay is described as above. Conditions: ATP close to KM; read-out: Flt1 inhibition, IC50. The method, then:
as §1, §2, §3, §4

A further assay has as its target T1, Chk2 (Homo sapiens, UniProt O96017).
T1 construct: purchased Upstate Biotechnology
Description: Chk2 kinase assay: incorporation of γ-33P ATP into immobilized myelin basic protein. Conditions: 20 nM Chk2, 30 μM unlabeled ATP, 1 hour at room temperature; read-out: Chk2 inhibition, IC50. The method, then: Chk1 and Chk2 assays were performed by measuring incorporation of γ-^33P ATP into immobilized myelin basic protein (MBP). High binding white 384 well plates (Greiner) were coated with MBP (Sigma #M-1891) by incubation of 60 ul/well of 20 μg/ml MBP in Tris-buffered saline (TBS; 50 mM Tris pH 8.0, 138 mM NaCl, 2.7 mM KCl) for 24 hours at 4° C. Plates were washed 3× with 100 μl TBS. Kinase reactions were carried out in a total volume of 34 μl in kinase buffer (5 mM Hepes pH 7.6, 15 mM NaCl, 0.01% bovine gamma globulin (Sigma #I-5506), 10 mM MgCl2, 1 mM DTT, 0.02% TritonX-100). Compound dilutions were performed in DMSO and added to assay wells to a final DMSO concentration of 1%. Each data point was measured in duplicate, and at least two duplicate assays were performed for each individual compound determination. […] A mixture of unlabeled ATP and γ-^33P ATP was added to start the reaction (2×10^6 cpm of γ-^33P ATP per well (3000 Ci/mmole) and either 10 μM or 30 μM unlabeled ATP (for Chk1 and Chk2 assays respectively). The reaction was carried out for 1 hour at room temperature with shaking. Plates were washed 7× with TBS, followed by the addition of 50 μl/well scintillation fluid (Wallac). Plates were read using a Wallac Trilux counter. This is only one format of such assays, various other formats are possible, as known to those skilled in the art. […]

This passage reports IC50 results from patent publication US7704995B2 (Exelixis, Inc., priority 2003, dated 2010).

Structures are written as SMILES. A value given as a limit tells only on which side of the number the result lay.

Sequence of Flt4 (P35916 25-1363): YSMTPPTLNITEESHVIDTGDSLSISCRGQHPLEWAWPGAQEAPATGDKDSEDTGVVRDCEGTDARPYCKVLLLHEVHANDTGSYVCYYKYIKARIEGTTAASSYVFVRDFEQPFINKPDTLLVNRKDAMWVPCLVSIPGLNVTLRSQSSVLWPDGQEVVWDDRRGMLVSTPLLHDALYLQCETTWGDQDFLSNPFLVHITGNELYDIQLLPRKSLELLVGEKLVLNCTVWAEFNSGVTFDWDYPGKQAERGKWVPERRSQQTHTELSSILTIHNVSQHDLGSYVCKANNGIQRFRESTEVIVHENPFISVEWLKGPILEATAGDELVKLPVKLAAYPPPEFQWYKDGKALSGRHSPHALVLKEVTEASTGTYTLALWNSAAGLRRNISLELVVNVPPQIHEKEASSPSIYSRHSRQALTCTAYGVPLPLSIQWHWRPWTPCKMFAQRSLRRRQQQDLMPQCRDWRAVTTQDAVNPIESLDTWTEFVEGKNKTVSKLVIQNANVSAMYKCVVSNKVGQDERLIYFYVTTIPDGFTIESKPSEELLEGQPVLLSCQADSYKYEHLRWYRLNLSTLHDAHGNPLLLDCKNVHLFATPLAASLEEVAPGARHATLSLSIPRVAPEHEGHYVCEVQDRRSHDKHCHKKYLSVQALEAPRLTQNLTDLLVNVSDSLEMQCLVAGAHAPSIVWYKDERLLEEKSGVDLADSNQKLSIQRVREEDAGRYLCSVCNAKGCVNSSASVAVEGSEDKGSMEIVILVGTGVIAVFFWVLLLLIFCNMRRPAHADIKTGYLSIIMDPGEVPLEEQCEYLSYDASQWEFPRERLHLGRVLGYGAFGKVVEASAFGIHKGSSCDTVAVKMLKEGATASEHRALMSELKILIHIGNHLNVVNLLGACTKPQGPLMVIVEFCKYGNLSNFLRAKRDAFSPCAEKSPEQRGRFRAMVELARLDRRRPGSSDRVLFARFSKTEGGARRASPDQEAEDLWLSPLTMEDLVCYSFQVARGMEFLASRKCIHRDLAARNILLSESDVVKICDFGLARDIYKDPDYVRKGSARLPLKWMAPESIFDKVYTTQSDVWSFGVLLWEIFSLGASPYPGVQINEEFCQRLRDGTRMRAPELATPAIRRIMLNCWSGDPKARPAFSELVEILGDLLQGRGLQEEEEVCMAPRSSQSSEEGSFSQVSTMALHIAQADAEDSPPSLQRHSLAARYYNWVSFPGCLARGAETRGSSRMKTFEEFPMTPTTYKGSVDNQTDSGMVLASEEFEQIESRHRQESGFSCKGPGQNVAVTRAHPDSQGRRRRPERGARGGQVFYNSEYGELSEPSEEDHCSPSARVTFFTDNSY
Sequence of PLK (P53350 whole entry): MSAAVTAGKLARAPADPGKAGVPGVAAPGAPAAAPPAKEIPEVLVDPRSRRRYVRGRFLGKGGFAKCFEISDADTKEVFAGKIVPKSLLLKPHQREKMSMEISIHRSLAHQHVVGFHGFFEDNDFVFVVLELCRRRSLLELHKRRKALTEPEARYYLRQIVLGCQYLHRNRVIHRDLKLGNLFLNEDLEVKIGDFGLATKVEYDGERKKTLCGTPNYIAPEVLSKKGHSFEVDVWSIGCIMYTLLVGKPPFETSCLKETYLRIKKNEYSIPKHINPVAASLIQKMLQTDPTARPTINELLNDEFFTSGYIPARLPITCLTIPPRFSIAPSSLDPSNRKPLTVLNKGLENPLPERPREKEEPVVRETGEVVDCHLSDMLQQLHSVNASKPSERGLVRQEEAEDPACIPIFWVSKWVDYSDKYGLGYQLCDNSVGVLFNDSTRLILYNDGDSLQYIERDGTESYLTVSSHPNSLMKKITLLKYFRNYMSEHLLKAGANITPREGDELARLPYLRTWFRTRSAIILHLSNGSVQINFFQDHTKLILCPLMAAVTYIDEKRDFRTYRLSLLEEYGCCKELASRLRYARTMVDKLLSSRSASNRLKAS
Sequence of FGFR1 (P11362 22-822): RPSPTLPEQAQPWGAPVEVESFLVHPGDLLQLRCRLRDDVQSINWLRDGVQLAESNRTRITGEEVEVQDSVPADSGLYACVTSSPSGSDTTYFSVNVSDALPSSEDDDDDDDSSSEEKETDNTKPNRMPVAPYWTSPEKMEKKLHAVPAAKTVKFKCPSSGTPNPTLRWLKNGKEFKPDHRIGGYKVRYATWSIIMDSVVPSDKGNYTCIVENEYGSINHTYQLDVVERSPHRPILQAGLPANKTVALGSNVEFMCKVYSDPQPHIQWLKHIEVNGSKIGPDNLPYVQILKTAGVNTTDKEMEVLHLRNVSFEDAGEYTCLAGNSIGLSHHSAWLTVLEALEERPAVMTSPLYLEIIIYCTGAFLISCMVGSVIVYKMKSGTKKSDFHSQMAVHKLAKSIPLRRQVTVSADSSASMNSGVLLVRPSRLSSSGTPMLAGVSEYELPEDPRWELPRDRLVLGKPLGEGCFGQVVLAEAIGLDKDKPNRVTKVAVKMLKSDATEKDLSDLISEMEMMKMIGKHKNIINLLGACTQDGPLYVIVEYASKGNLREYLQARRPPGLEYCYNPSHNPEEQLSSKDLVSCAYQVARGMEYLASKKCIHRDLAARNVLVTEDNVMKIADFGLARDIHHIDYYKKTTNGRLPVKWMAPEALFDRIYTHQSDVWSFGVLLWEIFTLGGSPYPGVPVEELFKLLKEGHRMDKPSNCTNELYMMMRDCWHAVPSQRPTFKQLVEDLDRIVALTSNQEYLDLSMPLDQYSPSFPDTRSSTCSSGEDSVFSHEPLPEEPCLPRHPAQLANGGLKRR
Sequence of IRK (P06213 28-1382): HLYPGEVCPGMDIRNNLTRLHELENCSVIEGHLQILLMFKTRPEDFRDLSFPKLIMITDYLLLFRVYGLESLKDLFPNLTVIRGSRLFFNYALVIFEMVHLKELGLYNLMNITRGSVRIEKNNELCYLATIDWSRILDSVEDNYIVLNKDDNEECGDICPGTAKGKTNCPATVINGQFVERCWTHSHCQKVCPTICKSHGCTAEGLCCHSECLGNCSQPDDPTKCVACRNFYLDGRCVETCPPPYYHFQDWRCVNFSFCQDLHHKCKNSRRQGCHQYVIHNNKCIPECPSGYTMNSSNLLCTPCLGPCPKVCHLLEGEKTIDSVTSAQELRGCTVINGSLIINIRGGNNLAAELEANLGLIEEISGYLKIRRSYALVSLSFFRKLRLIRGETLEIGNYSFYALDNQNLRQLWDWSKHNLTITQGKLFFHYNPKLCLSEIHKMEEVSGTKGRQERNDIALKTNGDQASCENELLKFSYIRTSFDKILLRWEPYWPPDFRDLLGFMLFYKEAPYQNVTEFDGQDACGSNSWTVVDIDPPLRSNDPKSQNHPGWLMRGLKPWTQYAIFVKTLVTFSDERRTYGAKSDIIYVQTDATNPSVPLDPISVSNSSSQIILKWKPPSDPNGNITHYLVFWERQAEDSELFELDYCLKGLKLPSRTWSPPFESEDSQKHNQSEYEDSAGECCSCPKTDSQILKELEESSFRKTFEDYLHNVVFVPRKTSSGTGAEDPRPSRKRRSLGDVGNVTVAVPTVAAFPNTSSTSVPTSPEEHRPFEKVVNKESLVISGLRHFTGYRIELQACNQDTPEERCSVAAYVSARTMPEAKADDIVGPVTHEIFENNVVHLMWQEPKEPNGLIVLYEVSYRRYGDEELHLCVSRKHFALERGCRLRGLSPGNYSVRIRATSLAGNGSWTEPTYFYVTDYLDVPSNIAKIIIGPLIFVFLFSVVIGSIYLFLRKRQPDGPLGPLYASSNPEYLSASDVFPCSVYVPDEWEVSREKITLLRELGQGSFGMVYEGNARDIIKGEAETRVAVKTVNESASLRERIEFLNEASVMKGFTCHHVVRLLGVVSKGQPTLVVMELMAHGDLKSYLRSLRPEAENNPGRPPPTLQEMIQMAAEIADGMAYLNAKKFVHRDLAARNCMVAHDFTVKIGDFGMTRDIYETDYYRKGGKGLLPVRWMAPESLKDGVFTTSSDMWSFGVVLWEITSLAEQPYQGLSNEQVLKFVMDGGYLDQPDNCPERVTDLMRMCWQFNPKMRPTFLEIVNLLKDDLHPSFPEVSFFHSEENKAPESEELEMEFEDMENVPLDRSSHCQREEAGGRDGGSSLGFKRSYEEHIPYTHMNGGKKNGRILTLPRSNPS
T1 sequence (O96017 whole entry): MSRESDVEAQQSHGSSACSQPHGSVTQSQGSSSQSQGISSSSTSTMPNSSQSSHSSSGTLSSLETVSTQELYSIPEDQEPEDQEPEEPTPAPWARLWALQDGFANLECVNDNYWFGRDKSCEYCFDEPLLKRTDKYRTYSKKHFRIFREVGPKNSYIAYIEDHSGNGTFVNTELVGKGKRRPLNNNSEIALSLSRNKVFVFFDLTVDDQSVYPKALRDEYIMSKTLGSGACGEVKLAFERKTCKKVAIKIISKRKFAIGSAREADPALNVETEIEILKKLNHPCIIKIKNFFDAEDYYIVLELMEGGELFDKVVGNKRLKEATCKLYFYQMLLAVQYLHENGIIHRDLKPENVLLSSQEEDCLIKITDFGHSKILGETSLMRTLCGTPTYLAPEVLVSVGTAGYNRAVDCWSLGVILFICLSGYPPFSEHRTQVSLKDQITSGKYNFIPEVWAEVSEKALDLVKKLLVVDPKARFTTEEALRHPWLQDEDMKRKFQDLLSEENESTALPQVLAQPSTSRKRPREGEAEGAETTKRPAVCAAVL

One may read the IC50 as the concentration at which inhibition is half-maximal. Turning to `NC(=O)c1nc(-c2cccc3ccccc23)cnc1N` [Example 2, 3-Amino-6-naphthalen-1-ylpyrazine-2-carboxamide], the IC50 at IRK was at least 10000 nM; at Flt4 it was under 50 nM; on PLK, 1000 to 10000 nM; on EMK, 1000 to 10000 nM; on FGFR1, 1000 to 10000 nM; on Flt1 it was 50 to 1000 nM. The IC50 at Chk2 was under 50 nM.
